What was measured:
Assay type in all cases: biochemical
[1] = target: AChE (Homo sapiens, UniProt P22303); test: Anticholinesterase activity, modified colorimetric Ellman method; settings: for inhibition at 100 µM / inhibition at 1000 µM: read-out: AChE % inhibition; for Selectivity and indexes: selective for AChE (over BChE)
[2] = target: BChE (Homo sapiens, UniProt P06276); test: as above; settings: for inhibition at 100 µM / inhibition at 1000 µM: read-out: BChE % inhibition
[3] = target: T1, recombinant hMAO B (Homo sapiens, UniProt P27338); test: MAO B inhibition, fluorometric method; settings: for inhibition at 100 µM / inhibition at 1000 µM: read-out: MAO B % inhibition; for Selectivity and indexes: selective for MAO-B (over MAO A)
T1 sequence (P27338 1-520): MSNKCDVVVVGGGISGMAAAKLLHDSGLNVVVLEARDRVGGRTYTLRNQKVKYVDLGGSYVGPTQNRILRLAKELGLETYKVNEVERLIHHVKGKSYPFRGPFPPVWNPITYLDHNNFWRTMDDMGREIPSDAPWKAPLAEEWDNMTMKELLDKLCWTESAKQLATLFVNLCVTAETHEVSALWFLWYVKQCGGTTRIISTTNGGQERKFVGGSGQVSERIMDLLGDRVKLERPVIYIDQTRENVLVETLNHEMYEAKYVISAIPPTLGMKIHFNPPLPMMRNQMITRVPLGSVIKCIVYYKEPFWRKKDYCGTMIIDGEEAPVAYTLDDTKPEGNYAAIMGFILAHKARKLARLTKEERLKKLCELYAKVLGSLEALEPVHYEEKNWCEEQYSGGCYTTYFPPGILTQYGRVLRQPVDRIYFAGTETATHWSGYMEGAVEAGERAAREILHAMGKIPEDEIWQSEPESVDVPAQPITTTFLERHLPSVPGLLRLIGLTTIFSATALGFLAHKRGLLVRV

[4] = target: T2, hMAO A (Homo sapiens, UniProt P21397); test: MAO A inhibition, fluorometric method; settings: for inhibition at 100 µM / inhibition at 1000 µM: read-out: MAO A % inhibition; for Selectivity and indexes: selective for MAO-A (over MAO B)
T2 sequence (P21397 1-527): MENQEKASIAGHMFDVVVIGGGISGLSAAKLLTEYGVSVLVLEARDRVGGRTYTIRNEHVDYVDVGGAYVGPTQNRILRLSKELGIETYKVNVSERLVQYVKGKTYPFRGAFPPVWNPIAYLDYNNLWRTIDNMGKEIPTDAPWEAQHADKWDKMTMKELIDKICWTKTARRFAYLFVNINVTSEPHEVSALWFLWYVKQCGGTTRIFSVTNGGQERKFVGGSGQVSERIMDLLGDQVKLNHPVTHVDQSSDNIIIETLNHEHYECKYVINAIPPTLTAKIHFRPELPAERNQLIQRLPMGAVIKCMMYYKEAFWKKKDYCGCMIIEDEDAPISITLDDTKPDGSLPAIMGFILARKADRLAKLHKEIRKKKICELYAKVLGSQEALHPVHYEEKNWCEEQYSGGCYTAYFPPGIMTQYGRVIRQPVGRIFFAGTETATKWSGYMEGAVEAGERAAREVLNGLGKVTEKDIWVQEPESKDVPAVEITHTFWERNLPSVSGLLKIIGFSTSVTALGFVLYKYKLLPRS

Sequence of BChE (P06276 29-602, species assumed): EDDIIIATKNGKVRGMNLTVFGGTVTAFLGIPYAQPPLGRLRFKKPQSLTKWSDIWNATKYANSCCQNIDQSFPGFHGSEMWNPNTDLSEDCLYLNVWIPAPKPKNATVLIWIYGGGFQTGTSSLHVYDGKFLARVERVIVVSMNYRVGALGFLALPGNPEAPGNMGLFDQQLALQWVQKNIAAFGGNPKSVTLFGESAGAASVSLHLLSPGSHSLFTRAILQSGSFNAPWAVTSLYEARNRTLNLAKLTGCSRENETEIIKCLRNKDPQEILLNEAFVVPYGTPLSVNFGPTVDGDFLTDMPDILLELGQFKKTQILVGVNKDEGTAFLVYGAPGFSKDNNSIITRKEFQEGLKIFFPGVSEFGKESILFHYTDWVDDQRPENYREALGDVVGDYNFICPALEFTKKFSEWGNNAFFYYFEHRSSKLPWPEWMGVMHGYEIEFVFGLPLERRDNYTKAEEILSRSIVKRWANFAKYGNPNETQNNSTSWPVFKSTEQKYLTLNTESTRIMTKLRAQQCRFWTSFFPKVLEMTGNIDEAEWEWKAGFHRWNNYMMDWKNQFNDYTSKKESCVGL
Sequence of AChE (P22303 32-614): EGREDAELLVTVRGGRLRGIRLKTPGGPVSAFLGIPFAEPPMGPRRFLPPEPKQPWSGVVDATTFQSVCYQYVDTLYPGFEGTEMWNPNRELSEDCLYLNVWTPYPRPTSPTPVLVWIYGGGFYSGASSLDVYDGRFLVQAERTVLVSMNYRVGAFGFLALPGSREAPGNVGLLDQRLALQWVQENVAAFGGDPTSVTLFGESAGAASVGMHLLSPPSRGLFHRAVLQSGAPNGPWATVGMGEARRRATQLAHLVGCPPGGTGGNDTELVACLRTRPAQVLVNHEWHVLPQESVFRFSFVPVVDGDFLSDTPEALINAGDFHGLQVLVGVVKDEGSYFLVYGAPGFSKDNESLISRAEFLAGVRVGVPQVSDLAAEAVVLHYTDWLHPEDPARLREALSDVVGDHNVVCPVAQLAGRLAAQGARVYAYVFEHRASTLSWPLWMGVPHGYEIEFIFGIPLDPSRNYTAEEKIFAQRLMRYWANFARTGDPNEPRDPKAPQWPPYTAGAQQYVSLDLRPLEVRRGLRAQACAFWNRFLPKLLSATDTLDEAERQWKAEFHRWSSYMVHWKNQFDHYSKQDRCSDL

| Structure (SMILES) | IC50 [1] | inhibition at 100 µM [1] | inhibition at 1000 µM [1] | Selectivity and indexes [1] | IC50 [2] | inhibition at 100 µM [2] | inhibition at 1000 µM [2] | IC50 ([3]; MAO B IC50, tables) | IC50 ([3]; MAO B IC50, text) | inhibition at 100 µM [3] | inhibition at 1000 µM [3] | Selectivity and indexes [3] | IC50 [4] | inhibition at 100 µM [4] | inhibition at 1000 µM [4] | Selectivity and indexes [4] | inhibition at 10 µM ([3]; read-out: MAO B inhibition) |
| --- | --- | --- | --- | --- | --- | --- | --- | --- | --- | --- | --- | --- | --- | --- | --- | --- | --- |
| COc1ccc(C(=O)C=Cc2ccc(NC(=O)CN3CCN(C)CC3)cc2)cc1OC [Compound 4a, N-(4-(3-(3,4-Dimethoxyphenyl)-3-oxoprop-1-en-1-yl)phenyl)-2-(4-methylpiperazin-1-yl)acetamide] | 0.068 ± 0.003 µM | 90.3 ± 1.86% | 93.5 ± 3.16% | AChE/>1000 | > 1000 µM | 24.6 ± 0.974% | 42.5 ± 1.85% | 0.274 ± 0.012 µM | < 1 µM | 80.5 ± 2.24% | 84 ± 1.93% | MAO-B/>1000 | > 1000 µM | 38.7 ± 1.06% | 47.7 ± 2.04% | – | – |
| CCN1CCN(CC(=O)Nc2ccc(C=CC(=O)c3ccc(OC)c(OC)c3)cc2)CC1 [Compound 4b, N-(4-(3-(3,4-Dimethoxyphenyl)-3-oxoprop-1-en-1-yl)phenyl)-2-(4-ethylpiperazin-1-yl)acetamide] | 0.093 ± 0.003 µM | 88.7 ± 2.23% | 92.6 ± 2.45% | AChE/>1000 | > 1000 µM | 27 ± 0.877% | 31.1 ± 1.03% | > 100 µM | – | 40.1 ± 1.97% | 60.4 ± 2.27% | – | > 100 µM | 31.2 ± 1.24% | 53.1 ± 2.17% | – | – |
| COc1ccc(C(=O)C=Cc2ccc(NC(=O)CN3CCN(C(C)C)CC3)cc2)cc1OC [Compound 4c, N-(4-(3-(3,4-Dimethoxyphenyl)-3-oxoprop-1-en-1-yl)phenyl)-2-(4-isopropylpiperazin-1-yl)acetamide] | > 100 µM | 48.2 ± 1.98% | 79.2 ± 3.03% | – | > 1000 µM | 25.5 ± 1.1% | 46 ± 1.92% | > 1000 µM | – | 28.9 ± 1.02% | 41.1 ± 0.941% | – | > 1000 µM | 39 ± 0.933% | 47.4 ± 0.836% | – | – |
| C=CCN1CCN(CC(=O)Nc2ccc(C=CC(=O)c3ccc(OC)c(OC)c3)cc2)CC1 [Compound 4d, 2-(4-Allylpiperazin-1-yl)-N-(4-(3-(3,4-dimethoxyphenyl)-3-oxoprop-1-en-1-yl)phenyl)acetamide] | > 100 µM | 40 ± 1.02% | 80.7 ± 3.34% | – | > 1000 µM | 20.1 ± 0.964% | 40.3 ± 1.21% | > 1000 µM | – | 30.1 ± 0.957% | 36.7 ± 1.04% | – | > 100 µM | 41.4 ± 1.96% | 55 ± 2.06% | MAO-A/>10 | – |
| C#CCN1CCN(CC(=O)Nc2ccc(C=CC(=O)c3ccc(OC)c(OC)c3)cc2)CC1 [Compound 4e, N-(4-(3-(3,4-Dimethoxyphenyl)-3-oxoprop-1-en-1-yl)phenyl)-2-(4-(prop-2-yn-1-yl)piperazin-1-yl)acetamide] | > 100 µM | 39.4 ± 1.32% | 67.2 ± 2.11% | – | > 1000 µM | 21.9 ± 0.835% | 38 ± 0.964% | > 100 µM | – | 39.3 ± 1.48% | 78.2 ± 2.48% | – | > 100 µM | 44.2 ± 1.87% | 61.4 ± 1.95% | – | – |
| COc1ccc(C(=O)C=Cc2ccc(NC(=O)CN3CCN(C=O)CC3)cc2)cc1OC [Compound 4f, N-(4-(3-(3,4-Dimethoxyphenyl)-3-oxoprop-1-en-1-yl)phenyl)-2-(4-formylpiperazin-1-yl)acetamide] | 0.048 ± 0.002 µM | 94.8 ± 3.96% | 96.8 ± 2.93% | AChE/>1000 | > 1000 µM | 24.3 ± 0.829% | 31.7 ± 1.37% | 0.137 ± 0.005 µM | < 1 µM | 88.6 ± 1.83% | 90.7 ± 2.62% | MAO-B/>1000 | > 1000 µM | 28.8 ± 0.861% | 40.8 ± 0.955% | – | 88.6 ± 1.83% |
| COCCN1CCN(CC(=O)Nc2ccc(C=CC(=O)c3ccc(OC)c(OC)c3)cc2)CC1 [Compound 4h, N-(4-(3-(3,4-Dimethoxyphenyl)-3-oxoprop-1-en-1-yl)phenyl)-2-(4-(2-methoxyethyl)piperazin-1-yl)acetamide] | 0.12 ± 0.005 µM | 86.5 ± 1.35% | 90.6 ± 2.75% | AChE/>1000 | > 1000 µM | 21.5 ± 0.874% | 30.2 ± 1.13% | > 100 µM | – | 41.3 ± 0.916% | 79.5 ± 2.86% | – | > 100 µM | 28.6 ± 1.05% | 59.9 ± 2.24% | – | – |
| COc1ccc(C(=O)C=Cc2ccc(NC(=O)CN3CCN(CCCO)CC3)cc2)cc1OC [Compound 4i, N-(4-(3-(3,4-Dimethoxyphenyl)-3-oxoprop-1-en-1-yl)phenyl)-2-(4-(3-hydroxypropyl)piperazin-1-yl)acetamide] | 0.084 ± 0.003 µM | 90.5 ± 2.83% | 94.2 ± 2.06% | AChE/>1000 | > 1000 µM | 23.6 ± 1.07% | 39.6 ± 1.34% | > 100 µM | – | 47.4 ± 1.62% | 74.1 ± 2.42% | MAO-B/>10 | > 1000 µM | 29.1 ± 0.962% | 41.1 ± 2.06% | – | – |
| COc1ccc(C(=O)C=Cc2ccc(NC(=O)CN3CCN(CCN(C)C)CC3)cc2)cc1OC [Compound 4j, N-(4-(3-(3,4-Dimethoxyphenyl)-3-oxoprop-1-en-1-yl)phenyl)-2-(4-(2-(dimethylamino)ethyl)piperazin-1-yl)acetamide] | 0.043 ± 0.002 µM | 92.2 ± 3.48% | 94 ± 1.94% | AChE/>1000 | > 1000 µM | 28.4 ± 1.16% | 42.7 ± 2.06% | > 100 µM | – | 40.1 ± 1.06% | 82.2 ± 3.03% | MAO-B/>10 | > 1000 µM | 32.3 ± 1.14% | 47.7 ± 1.94% | – | – |
| COc1ccc(C(=O)C=Cc2ccc(NC(=O)CN3CCN(CCCN(C)C)CC3)cc2)cc1OC [Compound 4k, N-(4-(3-(3,4-Dimethoxyphenyl)-3-oxoprop-1-en-1-yl)phenyl)-2-(4-(3-(dimethylamino)propyl)piperazin-1-yl)acetamide] | 0.039 ± 0.001 µM | 94.1 ± 2.96% | 97.4 ± 2.81% | AChE/>1000 | > 1000 µM | 29 ± 1.04% | 46 ± 1.87% | > 1000 µM | – | 36.1 ± 0.964% | 48.7 ± 1.84% | – | > 100 µM | 41.3 ± 1.94% | 63 ± 2.86% | MAO-A/>10 | – |
| COc1ccc(C(=O)C=Cc2ccc(NC(=O)CN3CCN(C4CCCC4)CC3)cc2)cc1OC [Compound 4l, 2-(4-Cyclopentylpiperazin-1-yl)-N-(4-(3-(3,4-dimethoxyphenyl)-3-oxoprop-1-en-1-yl)phenyl)acetamide] | > 100 µM | 40.3 ± 1.82% | 76.9 ± 2.36% | – | > 1000 µM | 32.7 ± 1.35% | 41 ± 2% | > 1000 µM | – | 29.7 ± 0.841% | 46.7 ± 1.15% | – | > 1000 µM | 30.4 ± 1.25% | 36.7 ± 0.984% | – | – |
| COc1ccc(C(=O)C=Cc2ccc(NC(=O)CN3CCN(S(C)(=O)=O)CC3)cc2)cc1OC [Compound 4m, N-(4-(3-(3,4-Dimethoxyphenyl)-3-oxoprop-1-en-1-yl)phenyl)-2-(4-(methylsulfonyl)piperazin-1-yl)acetamide] | 0.158 ± 0.006 µM | 87.6 ± 1.72% | 89.4 ± 2.59% | AChE/>1000 | > 1000 µM | 33.3 ± 1.22% | 37.3 ± 0.961% | > 100 µM | – | 29 ± 0.826% | 58 ± 1.63% | MAO-B/>10 | > 1000 µM | 33.6 ± 1.32% | 39.4 ± 1.37% | – | – |
